Inconclusive results and toxic doses are left out.
Tested on: L1210 leukemia ip in BDF1 mice, survival T/C
Experiment: NCI In Vivo Anticancer Drug Screen. Data for tumor model L1210 Leukemia (intraperitoneal) in B6D2F1 (BDF1) mice
Settings: endpoint: mean survival time, higher = longer survival
Outline: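 Transplanted-tumor mice were given test agent; controls received vehicle only. Survival readings from the two groups were divided (treated over control).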

Structure (SMILES): CCOP(=O)(N1CC1(C)C)N1CC1(C)C (configuration not stated)
- T/C (dose: 1.0 mg/kg/injection, schedule: Q01DX009 (ip), vehicle: saline): 100 % of control
- T/C (dose: 2.0 mg/kg/injection, schedule: Q01DX009 (ip), vehicle: saline): 105 % of control
- T/C (dose: 4.0 mg/kg/injection, schedule: Q01DX009 (ip), vehicle: saline): 110 % of control
- T/C (dose: 20.0 mg/kg/injection, schedule: Q01DX009 (ip), vehicle: saline): 161 % of control
- T/C (dose: 25.0 mg/kg/injection, schedule: Q01DX001 (ip), vehicle: other): 209 % of control
- T/C (dose: 30.0 mg/kg/injection, schedule: Q01DX009 (ip), vehicle: saline): 209 % of control
- T/C (dose: 50.0 mg/kg/injection, schedule: Q01DX001 (ip), vehicle: other): 201 % of control
- T/C (dose: 52.0 mg/kg/injection, schedule: Q01DX009 (ip), vehicle: Klucel (hydroxypropylcellulose) (HPC)): 177 % of control
- T/C (dose: 53.0 mg/kg/injection, schedule: Q01DX001 (ip), vehicle: saline): 152 % of control
- T/C (dose: 80.0 mg/kg/injection, schedule: Q01DX001 (ip), vehicle: other): 151 % of control
- T/C (dose: 80.0 mg/kg/injection, schedule: Q01DX001 (ip), vehicle: saline): 152 % of control
- T/C (dose: 80.0 mg/kg/injection, schedule: Q01DX009 (ip), vehicle: saline): 91 % of control
- T/C (dose: 120.0 mg/kg/injection, schedule: Q01DX001 (ip), vehicle: other): 162 % of control
- T/C (dose: 120.0 mg/kg/injection, schedule: Q01DX001 (ip), vehicle: saline): 273 % of control
- T/C (dose: 177.0 mg/kg/injection, schedule: Q01DX001 (ip), vehicle: saline): 174 % of control
- T/C (dose: 180.0 mg/kg/injection, schedule: Q01DX001 (ip), vehicle: other): 224 % of control
- T/C (dose: 200.0 mg/kg/injection, schedule: Q01DX001 (ip), vehicle: other): 223 % of control
- T/C (dose: 400.0 mg/kg/injection, schedule: Q01DX001 (ip), vehicle: other): 226 % of control

Structure (SMILES): O=C1C(=O)N(CN2CCCCC2)c2ccccc21
- T/C (dose: 100.0 mg/kg/injection, schedule: Q01DX009 (ip), vehicle: saline with Tween-80): 98 % of control
- T/C (dose: 100.0 mg/kg/injection, schedule: Q04DX003 (ip), vehicle: saline with Tween-80): 109 % of control
- T/C (dose: 200.0 mg/kg/injection, schedule: Q01DX009 (ip), vehicle: saline with Tween-80): 113 % of control
- T/C (dose: 200.0 mg/kg/injection, schedule: Q04DX003 (ip), vehicle: saline with Tween-80): 109 % of control
- T/C (dose: 400.0 mg/kg/injection, schedule: Q01DX009 (ip), vehicle: saline with Tween-80): 104 % of control
- T/C (dose: 400.0 mg/kg/injection, schedule: Q04DX003 (ip), vehicle: saline with Tween-80): 108 % of control

Structure (SMILES): CC(C)(C)CC(=O)OCCC[N+](C)(C)C
- T/C (dose: 25.0 mg/kg/injection, schedule: Q01DX009 (ip), vehicle: water): 104 % of control
- T/C (dose: 50.0 mg/kg/injection, schedule: Q01DX009 (ip), vehicle: water): 106 % of control

Structure (SMILES): CC(=O)Nc1cc2[nH]c(=O)c3ccccc3c2cc1Cl
- T/C (dose: 100.0 mg/kg/injection, schedule: Q01DX001 (ip), vehicle: carboxymethylcellulose (CMC)): 100 % of control
- T/C (dose: 200.0 mg/kg/injection, schedule: Q01DX001 (ip), vehicle: carboxymethylcellulose (CMC)): 105 % of control
- T/C (dose: 400.0 mg/kg/injection, schedule: Q01DX001 (ip), vehicle: carboxymethylcellulose (CMC)): 93 % of control

Structure (SMILES): CCC(=O)c1ccc2ccccc2c1
- T/C (dose: 100.0 mg/kg/injection, schedule: Q04DX003 (ip), vehicle: Klucel (hydroxypropylcellulose) (HPC)): 100 % of control
- T/C (dose: 200.0 mg/kg/injection, schedule: Q04DX003 (ip), vehicle: Klucel (hydroxypropylcellulose) (HPC)): 104 % of control
- T/C (dose: 400.0 mg/kg/injection, schedule: Q04DX003 (ip), vehicle: Klucel (hydroxypropylcellulose) (HPC)): 100 % of control

Structure (SMILES): O=C(Nc1ccnc(=O)[nH]1)c1ccccc1
- T/C (dose: 100.0 mg/kg/injection, schedule: Q01DX001 (ip), vehicle: Klucel (hydroxypropylcellulose) (HPC)): 91 % of control
- T/C (dose: 200.0 mg/kg/injection, schedule: Q01DX001 (ip), vehicle: Klucel (hydroxypropylcellulose) (HPC)): 100 % of control
- T/C (dose: 400.0 mg/kg/injection, schedule: Q01DX001 (ip), vehicle: Klucel (hydroxypropylcellulose) (HPC)): 92 % of control

Structure (SMILES): CCC(C(=O)O)N1C(=O)c2ccccc2C1=O (configuration not stated)
- T/C (dose: 100.0 mg/kg/injection, schedule: Q01DX001 (ip), vehicle: saline): 102 % of control
- T/C (dose: 200.0 mg/kg/injection, schedule: Q01DX001 (ip), vehicle: saline): 97 % of control
- T/C (dose: 400.0 mg/kg/injection, schedule: Q01DX001 (ip), vehicle: saline): 103 % of control

Structure (SMILES): C(=NCCCN1CCN(CCCN=Cc2ccc3c(c2)OCO3)CC1)c1ccc2c(c1)OCO2
- T/C (dose: 25.0 mg/kg/injection, schedule: Q01DX Z (ip), vehicle: carboxymethylcellulose (CMC)): 103 % of control
- T/C (dose: 50.0 mg/kg/injection, schedule: Q01DX Z (ip), vehicle: carboxymethylcellulose (CMC)): 109 % of control
- T/C (dose: 100.0 mg/kg/injection, schedule: Q01DX Z (ip), vehicle: carboxymethylcellulose (CMC)): 100 % of control
- T/C (dose: 200.0 mg/kg/injection, schedule: Q01DX Z (ip), vehicle: carboxymethylcellulose (CMC)): 97 % of control
